Data set [1] has as its system HIV-1RF. The experiment in a line: Pre-exposure assay: CEM-SS cells treated before HIV-1RF infection, cell viability. It counts as cell-based. Particulars: for EC50: Human immunodeficiency virus 1, CEM-SS. On the procedure:
(§1) The effects of pre- and post-infection PI treatment on CEM-SS toxicity were assessed. […] Cell toxicity was monitored six days after infection using XTT reagent. In the post-exposure assay, test compounds were added to cells 0, 24, 48, or 72 h after HIV-1 infection, and cell viability was measured six days post-infection.

Data set [2] relates to HIV-1RF. The experiment in a line: p24 levels after single high MOI HIV-1RF infection of CEM-SS cells, time of addition. It counts as cell-based. Particulars: 1 μM. On the procedure:
The cytoprotective effect against HIV of the PEG-protease inhibitor conjugates was evaluated during a single round of high multiplicity of infection (“MOI”) HIV-1 infection in CEM-SS cells. CEM-SS cells were incubated for one hour with a single high MOI dose of HIV-1RF. Cells were washed to remove free virus, then test compounds were added to cells at 0, 2, 4, 6, 8, 16, or 24 hours after HIV-1 infection. To monitor viral replication, cell supernatants were analyzed at 30 hours post-infection for levels of the HIV capsid protein p24 (FIG. 1). […] Nevirapine inhibited viral replication at 1 μM when added to cells up to four hours post-infection, and at 10 μM when added up to eight hours post-infection.

Data set [3] deals with HIV-1 virions. The experiment in a line: Infectivity of HIV-1 virions from treated cells on naive CEM-SS cells. It counts as cell-based. How it is done: In concert with p24 analysis, cell supernatants collected from cells exposed to test compounds at 8, 16, or 24 hours post-infection were used to infect naïve CEM-SS cells. Cell viability was measured six days post-infection as a measure of virus infectivity (Table 5).

For data set [4], the system named is CEM-SS cells. The experiment in a line: Post-exposure assay: toxicity in CEM-SS cells. How it is done:
as §1

The test system of data set [5] is HIV-1RF. Briefly: Post-exposure assay: compounds added after HIV-1 infection of CEM-SS cells, cell viability. In kind it is cell-based. Particulars: Human immunodeficiency virus 1, CEM-SS. How it is done:
as §1

Data set [6] concerns CEM-SS cells. Briefly: Pre-exposure assay: toxicity in CEM-SS cells. How it is done: as §1
Data set [7] can be described thus: Plasma protein binding by equilibrium dialysis, human plasma. It counts as in vitro ADME. The note with it: human plasma, 5 μM, fraction unbound; read-out: Plasma Protein Binding Fu ± SD. Summed up: (§2)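 Compound at 5 μM in species-specific plasma (0.5% DMSO final), dialysed against plasma-free buffer across a membrane for two hours at 37° C to equilibrium. Compound on each side quantified by LC-MS/MS.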
A general note: In equilibrium dialysis free small molecules cross a membrane that holds back macromolecules.

Data set [8] relates to CEM-SS cells. Particulars: absence of viral infection. How it is done:
To evaluate whether conjugated protease inhibitors retain the ability to protect against HIV-1 infection, CEM-SS cells infected with the RF strain of HIV-1 were treated with test compounds for six days, and then cell viability was monitored using the tetrazolium dye XTT. […] A value for Therapeutic Index (TI) was calculated as TC50/EC50.

Data set [9] is described as follows: Microsomal protein binding by equilibrium dialysis. In kind it is in vitro ADME. Particulars: human liver microsomes, read-out: Microsomal Protein Binding Fu ± SD. The method, boiled down:
(§3)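 Compound at 3 μM final in buffer with or without human liver microsomes, dialysed to equilibrium at 37 °C. Both sides quantified by LC-MS/MS to derive fraction unbound (Fu).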

A short description of data set [10]: Metabolic stability in cryopreserved human hepatocytes. Particulars: human, hepatocytes. On the procedure: (§4) Metabolism of PI conjugates was investigated by monitoring the levels of unmetabolized parent compound following incubation with cryopreserved human or monkey hepatocytes. The use of whole hepatocytes rather than microsomes requires that the drugs cross the cell membrane to interact with intracellularly-localized metabolic enzymes, and thus provides the most relevant in vitro system for understanding overall metabolic stability of these compounds.
(§5) Test compounds (0.1 μM or 3 μM, as indicated) are incubated with cryopreserved human hepatocytes at a cell density of 0.5×10^6 viable cells/mL. […] Duplicate samples (50 μL) are removed from the incubation mixture at various timepoints up to four hours (for 0.1 μM test compound concentration), or one or two hours (for 3 μM test compound concentration), and the reaction is quenched by the addition of methanol containing internal standard (100 μL). The samples are centrifuged (2500 rpm at 4° C. for 20 min), and the supernatants at each time point pooled for cassette analysis by LC-MS/MS.

Data set [11] concerns the target recombinant HIV-1 protease (Human immunodeficiency virus type 1 group M subtype B (isolate HXB2) (HIV-1), UniProt P04585). The experiment in a line: Enzyme inhibition of purified HIV-1 protease (SensoLyte 520 HIV-Protease Assay Kit). In kind it is biochemical. The note with it: read-out: IC50 ± SD. How it is done:
Protease inhibitors (PI) are used to treat HIV infection by preventing viral assembly and maturation through the inhibition of HIV-1 protease activity. Biochemical assays were performed to evaluate the potential of PEG-PI conjugates to inhibit HIV-1 protease activity, relative to their respective PI parent molecules. Activity assays were performed at using the SensoLyte 520 HIV-Protease Assay Kit (Anaspec Inc., San Jose, Calif.) and recombinant HIV-1 protease. Protease activity was monitored by the formation of a fluorescent reporter product generated during HIV-1 protease-mediated digestion of a quenched, fluorimetric substrate containing the p17/p24 Pr^gag cleavage site.

Data set [12] has as its target CYP2D6 (Homo sapiens (Human), UniProt P10635). The experiment in a line: Metabolic stability in CYP2D6-expressing Bactosomes. In kind it is in vitro ADME. Particulars: 5 μM. How it is done: (§6) Compounds were evaluated for their propensity to act as substrates of individual human cytochrome P450 enzymes using a bacterial membrane preparation co-expressing human NADPH-cytochrome P450 reductase with either human CYP3A4 or CYP2D6 (Bactosomes™ Cypex, Ltd., Dundee, UK). In vitro metabolism studies using Bactosomes™ expressing individual human CYP isoforms monitor the extent to which a test compound is metabolized by a single CYP450 enzyme and allow identification of the CYP isoforms that may be responsible for the metabolism of a test compound. Timecourse analyses of test molecules (5 μM) with CYP2D6- or CYP3A4-expressing Bactosomes™ (100 pmol/mL) are performed in buffer (0.1 M phosphate, pH 7.4) in a final reaction volume of 25 μL. […] Reactions are terminated by the addition of methanol (50 μL) containing internal standard at 0, 5, 15, 30, and 45 minutes.

Data set [13] concerns the target T1, CYP3A4 (Homo sapiens (Human), UniProt P08684). Briefly: CYP450 inhibition in human liver microsomes: CYP3A4.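 Further: incubation at 37 °C started by adding 1 mM NADPH, with formation of the probe metabolite measured via LC-MS/MS or fluorescent detection.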 On the technique in general: Liver microsomes are vesicles of endoplasmic reticulum, rich in cytochrome P450 enzymes.
The test system of data set [14] is HIV-1 HT/92/599. The experiment in a line: HIV-1 reverse transcriptase activity after infection of fresh human PBMCs. Particulars: read-out: PBMC/HIV-1HT/92/599 EC50 ± SD; seven days, reverse transcriptase activity. It counts as cell-based. How it is done: (§7) Fresh human peripheral blood mononuclear cells (PBMCs) obtained from a commercial source were purified following centrifugation using a Ficoll-Hypaque density gradient. Viable cells were induced to proliferate in the presence of PHA-P and recombinant human IL-2 for 72 hours. […] Cell supernatant containing HIV-1 viral was incubated for 90 minutes at 37° C. with a reaction mixture containing EGTA, Triton X-100, Tris (pH 7.4), DTT, MgCl2, poly rA, oligo dT, and tritiated thymidine triphosphate (TTP). Incorporation of TTP into DNA was monitored by spotting the reaction mixture onto a DEAE filter mat, followed by washes with 5% phosphate buffer, distilled water, and 70% ethanol, and subsequent drying of the mat. Radioactivity was measured using a Wallac 1450 Microbeta Trilux liquid scintillation counter using Opti-Fluor O. Test compound-associated toxicity was measured in PBMCs cultured for seven days in the absence of virus using XTT reagent. […] TI was calculated as TC50/EC50.

Data set [15] relates to human plasma proteins. The experiment in a line: Plasma protein binding by equilibrium dialysis, human plasma. It counts as in vitro ADME. The note with it: human plasma, 5 μM, fraction unbound. The method, boiled down:
as §2

The test system of data set [16] is human liver microsomal proteins. Briefly: Microsomal protein binding by equilibrium dialysis. It counts as in vitro ADME. The note with it: human liver microsomes, 3 μM, fraction unbound. Summed up:
as §3

Data set [17] deals with human hepatocytes. The experiment in a line: Metabolic stability in cryopreserved human hepatocytes. Particulars: human hepatocytes, 3 uM, incubated up to one hour. On the procedure:
as §4, §5

The nature of data set [18]: Metabolic stability in human liver microsomes. Particulars: human liver microsomes, 3 μM. How it is done:
The human liver microsome-mediated biotransformation of PEG-PI compounds was determined by monitoring the loss of the substrate as a function of time. […] Test compounds (3 μM final concentration) were preincubated with pooled (male and female) human liver microsomes (0.5 mg/mL final protein concentration) in buffer (0.1M phosphate buffer, pH 7.4) at 37° C. Reactions were initiated by the addition of NADPH (1 mM final concentration), and allowed to continue for 0, 5, 15, 30, and 45 minutes. […] Sample supernatants are analyzed by liquid chromatography-tandem mass spectrometry.

Data set [19] has as its target T1, CYP3A4. Briefly: Metabolic stability in CYP3A4-expressing Bactosomes. It counts as in vitro ADME. The note with it: 5 μM. How it is done:
as §6

Data set [20] relates to PBMCs. The experiment in a line: Toxicity in PBMCs cultured without virus (XTT). How it is done: as §7, with “mat.” for “mat. Radioactivity was measured using a Wallac 1450 Microbeta Trilux liquid scintillation counter using Opti-Fluor O. Test compound-associated toxicity was measured in PBMCs cultured for seven days in the absence of virus using XTT reagent.”
(In general: Tetrazolium assays rely on reduction of a dye to a coloured formazan, in cell work by metabolically active cells.)

Several values for one entry are separate records, joined by “and”; a condition that tells them apart may be missing. Identical values can stand only once. Like-named read-outs stand apart in the source and are kept apart here.

T1 sequence (P08684 whole entry): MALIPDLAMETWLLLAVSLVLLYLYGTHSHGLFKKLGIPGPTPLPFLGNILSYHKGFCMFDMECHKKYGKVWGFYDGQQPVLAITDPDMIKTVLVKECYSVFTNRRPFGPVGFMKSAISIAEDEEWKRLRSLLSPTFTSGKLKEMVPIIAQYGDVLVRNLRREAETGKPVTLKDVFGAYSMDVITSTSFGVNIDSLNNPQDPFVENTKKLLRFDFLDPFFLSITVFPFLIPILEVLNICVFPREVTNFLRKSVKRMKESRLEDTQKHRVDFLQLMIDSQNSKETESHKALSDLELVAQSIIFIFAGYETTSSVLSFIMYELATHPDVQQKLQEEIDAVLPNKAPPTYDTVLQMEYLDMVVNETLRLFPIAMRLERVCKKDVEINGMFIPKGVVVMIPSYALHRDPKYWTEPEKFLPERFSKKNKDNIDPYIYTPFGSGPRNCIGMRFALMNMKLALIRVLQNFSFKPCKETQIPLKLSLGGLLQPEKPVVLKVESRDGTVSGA
CYP2D6, sequence (P10635 whole entry, canonical isoform): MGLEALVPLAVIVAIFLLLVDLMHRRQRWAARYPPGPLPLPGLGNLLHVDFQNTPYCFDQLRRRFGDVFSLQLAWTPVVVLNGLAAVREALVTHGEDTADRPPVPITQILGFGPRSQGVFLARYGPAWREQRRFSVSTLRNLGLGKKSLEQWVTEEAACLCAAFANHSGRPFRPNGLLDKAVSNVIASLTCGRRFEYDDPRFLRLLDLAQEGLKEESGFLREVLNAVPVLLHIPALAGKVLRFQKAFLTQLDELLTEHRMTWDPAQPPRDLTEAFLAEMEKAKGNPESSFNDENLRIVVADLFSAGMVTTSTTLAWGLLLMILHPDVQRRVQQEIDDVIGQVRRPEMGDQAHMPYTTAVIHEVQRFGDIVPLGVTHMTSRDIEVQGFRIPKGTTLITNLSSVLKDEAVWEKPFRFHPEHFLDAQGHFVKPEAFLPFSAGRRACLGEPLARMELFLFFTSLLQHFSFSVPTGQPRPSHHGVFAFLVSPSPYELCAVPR

Take `Cc1ccnc2c1NC(=O)c1cccnc1N2C1CC1` [Nevirapine]: the EC50 in data set [1] (2 h) came out at 470 nM; in data set [1] (8 h), 200 nM; in data set [1] (24 h), 640 nM; in data set [5] (0 h), 5 nM; in [5] (24 h) it was 10 nM; in [5] (48 h), 50 nM. Also, in [5] (72 h), the EC50 stood at 200 nM. For the same compound, the “EC50 values after pre-treatment of cells” value in data set [1] (in words) is recorded as “sub-micromolar”. Moreover, the “time of addition up to which antiviral activity (reduced p24) was seen” value in data set [2] was “up to four”. In addition, the “Percent Infectivity of HIV-1 Virions in comparison to virus-alone control” value in data set [3] (0.1 μM, added 8 h post-infection) is listed as 100.0%; in data set [3] (0.1 μM, added 16 h post-infection) it was 117.0%; in data set [3] (0.1 μM, added 24 h post-infection) it was 128.0%; in data set [3] (1 μM, added 8 h post-infection) it was 100.0%; in data set [3] (1 μM, added 16 h post-infection), 100.0%; in data set [3] (10 μM, added 8 h post-infection), 10.0%. In addition, in data set [3] (10 μM, added 24 h post-infection), the “Percent Infectivity of HIV-1 Virions in comparison to virus-alone control” value was found to be 177.8%. Also, the TC50 in data set [4] (drug addition 0 h post-infection), in data set [4] (drug addition 24 h post-infection), in data set [4] (drug addition 48 h post-infection), in data set [4] (drug addition 72 h post-infection), in [6] (exposure 2 h pre-infection) and in data set [6] (exposure 8 h pre-infection) was >1.0 µM each time. Further, the TC50 in data set [6] (exposure 24 h pre-infection) was >1.0 µM.
Consider `CCC[C@@]1(CCc2ccccc2)CC(O)=C([C@H](CC)c2cccc(NS(=O)(=O)c3ccc(C(F)(F)F)cn3)c2)C(=O)O1` [Tipranavir, reference compound], for which the fraction unbound at 2 h, 5 μM in data set [7] was 0.00866 ± 0.0013. Moreover, in [8], the “CEM-SS TC50 ± SD” value was 30.6 µM and 40.7 µM. Further, in data set [9], the fraction unbound at 3 μM was found to be 0.302 ± 0.0853. Also, the hepatocyte CLint (usually a measure of how fast metabolising enzymes remove a compound, apart from limits set by blood flow) at 3 μM in data set [10] is 0.111 ± 0.643 µL/min/1e6 cells. The IC50 (commonly the midpoint of a concentration-inhibition curve) in [11] was 7.2 nM and 1.96 nM.
Consider `COCCOCCOCCOC(=O)N[C@@H](C(=O)NC(Cc1ccccc1)[C@@H](O)CN(Cc1ccc(-c2ccccn2)cc1)NC(=O)[C@H](NC(=O)OCCOCCOCCOC)C(C)(C)C)C(C)(C)C` (stereo partly drawn) [di-mPEG3-Atazanavir], for which the “2D6 t1/2 ± SEM” value in [12] came out at 131 ± 48.5 min. The IC50 was > 50 µM in [13] (read-out: CYP3A4 IC50 Midazolam, probe substrate midazolam) and 23.4 µM in data set [13] (read-out: CYP3A4 IC50 Testosterone, probe substrate testosterone). Moreover, the EC50 in data set [14] is 390 ± 60 nM. The “Plasma Protein Binding Fu ± SD” value in [15] amounted to 0.376 ± 0.00639. Also, the “Microsomal Protein Binding Fu ± SD” value in [16] is given as “highly unbound”. The “CLint ± SEM” value in data set [17] is 3.46 ± 0.896 μL/min/10^6 cells; in data set [18] it was 190 ± 18.3 μL/min/mg protein. The compound also registered a t1/2 in data set [18] of 7.31 min. Besides, in data set [19], the “3A4 t1/2 ± SEM” value is reported as 95.8 ± 27.4 min. The “PBMC TC50 ± SD” value in data set [20] was 146 µM.

(Values after US10806794B2, “Protease inhibitors having enhanced features” (priority 2008, dated 2020).)
